From patent US11548868B2, “Heterocyclic compounds, compositions comprising heterocyclic compound, and methods of use thereof” (JS INNOPHARM (SHANGHAI) LTD, priority 2017, dated 2023)

Columns and labels:
[1] = target: T1, IDO1 in Hela cancer cells (Homo sapiens, UniProt P14902); test: IDO1 Cellular Assay (kynurenine production in IFN-γ stimulated Hela cancer cells); format: cell-based; conditions: human IFN-γ 50 ng/mL, 48 hours incubation, kynurenine at 490 nm
T1 construct: endogenous in cells; host or cells: Hela cancer cells stimulated with human IFN-γ
How it was run: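 HeLa cells stimulated with 50 ng/mL IFN-γ (final) and treated 48 h with compound (0–25 μM final, 0.25% DMSO). Supernatant kynurenine measured after TCA hydrolysis and p-dimethylaminobenzaldehyde reaction at 490 nm; inhibition vs DMSO control, IC50 by non-linear regression.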

[2] = target: Recombinant human TDO2 (Homo sapiens, UniProt P48775); test: TDO2 Enzymatic Assay; format: biochemical; conditions: recombinant human TDO2 200 nM, L-tryptophan 300 μM, 40 min room temperature, N′-formylkynurenine absorbance 321 nm; read-out: TDO2 bichemical activity*
Experimental: (§1) The TDO2 biochemical inhibitory activity is determined by measuring the decrease in N′-formylkynurenine from tryptophan catalyzed by TDO2 enzyme. Recombinant human TDO2 (200 nM), L-tryptophan (300 μM), L-ascorbic acid (20 mM), methylene Blue (20 μM), catalase (0.2 mg/mL), and serial dilutions of the test compounds in a total volume of […] containing DMSO (with final DMSO concentration of 0.5%) and a pH 7.5 buffer containing potassium phosphate (50 mM) were added into each well in a 96-well plate. After incubation at room temperature for 40 min, the absorbance of the reaction mixture was read at 321 nm to measure the formation of N′-formylkynurenine by SpectraMax microplate reader. Percent inhibition of the test compounds was determined by measuring the decrease in N′-formylkynurenine as compared to the control of DMSO vehicle, which was calculated by formula of (WC-WT)/WC, where WC is the mean absorbance of the control well minus blank well; WT is the mean absorbance of the test well minus the blank well. Data was analyzed by GraphPad Prism 5 and the IC50 values were obtained by non-linear regression.
The IC50 values of TDO2 biochemical activity for the examples disclosed herein are listed in Table 2, A: ≤0.1 μM; B: >0.10 μM and ≤0.5 μM; C: >0.5 μM and ≤1.0 μM; and D: >1.0 μM.

[3] = target: Recombinant human IDO1 (Homo sapiens, UniProt P14902); test: IDO1 Enzymatic Assay; conditions: recombinant human IDO1 40 nM, L-tryptophan 100 μM, 40 min room temperature, N′-formylkynurenine absorbance 321 nm; read-out: IDO1 biochemical activity*
Experimental: as §1, with “IDO1” for “TDO2”, “IDO1 (40” for “TDO2 (200”, “(100” for “(300”, “(WC−WT)/WC,” for “(WC-WT)/WC,”
The IC50 values of IDO1 biochemical activity for the examples disclosed herein are listed in Table 2, A: ≤0.1 μM; B: >0.10 μM and ≤0.5 μM; C: >0.5 μM and ≤1.0 μM; and D: >1.0 μM.

[4] = target: T2, TDO2 in A172 cancer cells (Homo sapiens, UniProt P48775); test: TDO2 Cellular Assay (kynurenine production in A172 cancer cells); format: cell-based; conditions: L-Trp 1 mM, 24 hours incubation, kynurenine at 490 nm
T2 construct: endogenous in cells; host or cells: A172 cancer cells
How it was run: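 Kynurenine output of A172 cells was read colorimetrically at 490 nm (Ehrlich reagent after TCA hydrolysis at 50 °C). Cells had 1 mM L-Trp plus compound at 0–25 μM in 0.25% DMSO for 24 h; IC50 values were fitted non-linearly from percent inhibition relative to vehicle.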

Recombinant human IDO1, sequence (P14902 whole entry): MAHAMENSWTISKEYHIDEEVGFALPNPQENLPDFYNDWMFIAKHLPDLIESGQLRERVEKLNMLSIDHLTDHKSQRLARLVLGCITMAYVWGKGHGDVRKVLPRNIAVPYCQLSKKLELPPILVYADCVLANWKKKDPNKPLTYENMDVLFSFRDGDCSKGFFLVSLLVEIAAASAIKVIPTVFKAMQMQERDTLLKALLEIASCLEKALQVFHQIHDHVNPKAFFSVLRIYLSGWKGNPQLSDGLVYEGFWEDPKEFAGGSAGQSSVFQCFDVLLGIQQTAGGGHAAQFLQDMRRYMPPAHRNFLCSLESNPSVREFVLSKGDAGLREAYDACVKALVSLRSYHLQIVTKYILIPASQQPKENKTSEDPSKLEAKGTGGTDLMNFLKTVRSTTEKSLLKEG
T1 sequence (P14902 whole entry): as above
T2 sequence (P48775 whole entry): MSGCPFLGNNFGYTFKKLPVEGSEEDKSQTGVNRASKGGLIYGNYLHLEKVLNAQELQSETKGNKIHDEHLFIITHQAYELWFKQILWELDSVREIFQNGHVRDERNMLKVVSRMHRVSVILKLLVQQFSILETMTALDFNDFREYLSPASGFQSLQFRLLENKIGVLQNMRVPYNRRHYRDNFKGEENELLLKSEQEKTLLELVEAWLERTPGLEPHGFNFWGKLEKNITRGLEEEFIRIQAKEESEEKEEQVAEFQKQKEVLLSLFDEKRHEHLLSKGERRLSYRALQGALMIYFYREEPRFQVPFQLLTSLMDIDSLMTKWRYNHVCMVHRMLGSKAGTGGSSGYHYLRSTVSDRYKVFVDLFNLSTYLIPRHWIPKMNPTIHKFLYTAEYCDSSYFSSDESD
Recombinant human TDO2, sequence (P48775 whole entry): as above

Row | Compound | IC50 [1] [nM] | IC50 [2] [nM] | IC50 [3] [nM] | IC50 [4] [nM]
1 | O[C@@]1(c2cc(Cl)cc3[nH]ncc23)C[C@H]2C[C@H]2C1 [Example 25, (1R,3r,5S)-3-(6-chloro-1H-indazol-4-yl)bicyclo[3.1.0]hexan-3-ol] | 1000 to 5000 | ≤ 100 | 500 to 1000 | ≤ 500
2 | CC(=O)N1CC2CN(c3cc(Cl)cc4[nH]ncc34)CC2C1(C)C (stereo not shown) [Example 18, 1-(5-(6-chloro-1H-indazol-4-yl)-1,1-dimethylhexahydropyrrolo[3,4-c]pyrrol-2(1H)-yl)ethanone] |  | ≤ 100 | 500 to 1000 | ≤ 500
3 | CS(=O)(=O)N1C[C@@H]2C[C@@](O)(c3cc(Cl)cc4[nH]ncc34)C[C@@H]2C1 [Example 2, (3aR,5r,6aS)-5-(6-chloro-1H-indazol-4-yl)-2-(methylsulfonyl)octahydrocyclopenta[c]pyrrol-5-ol] | 500 to 1000 | ≤ 100 | 100 to 500 | ≤ 500
4 | CC(=O)N1C[C@@H]2C[C@@](O)(c3cc(Cl)cc4[nH]ncc34)C[C@@H]2C1 [Example 22, 1-((3aR,5r,6aS)-5-(6-chloro-1H-indazol-4-yl)-5-hydroxyhexahydrocyclopenta[c]pyrrol-2(1H)-yl)ethanone] | > 5000 | ≤ 100 | > 1000 | ≤ 500

More lines, now with the values ahead:

Row | IC50 [1] [nM] | IC50 [2] [nM] | IC50 [3] [nM] | IC50 [4] [nM] | Compound
5 |  | ≤ 100 | > 1000 | 500 to 1000 | CC1(C)C2CN(c3cc(Cl)cc4[nH]ncc34)CC2CN1S(C)(=O)=O (single isomer, unassigned) [Example 1a]
6 | > 5000 | ≤ 100 | 100 to 500 | ≤ 500 | CC1(C)C2CN(c3cc(Cl)cc4[nH]ncc34)CC2CN1S(C)(=O)=O (single isomer, unassigned) [Example 1b]
